Key:
[1] = Khimiya Geterotsiklicheskikh Soedinenii, Vol. 12: 1660-1664 (1971); cited from earlier work
[2] = tested on: Adjuvant arthritis (paw edema); test: Adjuvant Arthritis Assay; Established; assay type: in vivo, rats; details: Rattus norvegicus, 552 h; oral, once daily on days 19-22 post adjuvant; paw volume on day 23
Description: In this assay the differences between dosed and non-dosed paw values were determined postadjuvant. […] On day 19 post adjuvant all rats were evenly distributed according to edema size. Doses of treatment or vehicle were administered orally to all rats once daily on days 19-22 inclusive. Final paw volumes were determined on day 23 post adjuvant.

[3] = tested on: acetylcholine-induced writhing; test: Acetylcholine Writhing Assay; assay type: in vivo, male CD-1 mice; details: Mus musculus, 0.75 h; oral by gavage, 45 minutes before intraperitoneal acetylcholine; writhes counted for 10 minutes
Description: Analgesic: The "Acetylcholine Writhing Assay" (ACH) of Collier et al [Nature; Vol. 204: page 1316 (1964)]was employed. In this study the test compounds were administered orally to mice and 45 minutes later the mice were injected with acetylcholine. The frequency of writhing was counted in each animal and the response elicited in the drug-treated mice was compared with the response of those given acetylcholine alone.
Analgesic activity was evaluated via the mouse acetylcholine writing test using a modification of the procedure described by Collier, et al in Nature (New Biol.) Vol. 204; page 1316 (1964) and Br. J. Pharmacol, Chemother, Vol. 32: page 295 (1968). Each test group consisted of ten male CD-1 mice (Charles River Laboratories) weighing 18-28 grams each. Test compounds suspended in a mixture of 0.25% methylcellulose solution in […] were administered orally by gavage and forty five minutes later the mice were injected intraperitoneally with acetylcholine (0.55 mg/ml in 0.25% methylcellulose). The number of writhes in each group of mice were counted for 10 minutes immediately following the injection of acetylcholine and the percent inhibition was calculated as follows: [formula] Four dose levels were used to calculate the ED50 of the test compound.

[4] = tested on: Adjuvant arthritis (hind paw edema); test: Adjuvant Arthritis Assay; Developing; assay type: in vivo, female Lewis rats; details: Rattus norvegicus, 96 h, dosed once daily for 4 days in 0.25% methylcellulose, inhibition of hind paw edema on fifth day
Description: Anti-Inflammatory: This activity was evaluated via a modification of the Adjuvant Arthritis Assay (AA) described by S. […] This assay measures the ability of the test compound to antagonize local edema, a characteristic of the inflammatory response. […] The left and right rear paws of female Lewis rats (Charles River Laboratories) weighing 160-180 grams each were measured by mercury displacement prior to injection (Day Zero). Adjuvant arthritis was induced in this rat colony by subcutaneous injection of Mycobacterium butyricum (0.75 mg in 0.1 ml light mineral oil, Fisher) using an automated Cornwall syringe. On days 11-15 post-adjuvant the injected animals with 0.25 to 0.75 ml. paw edema were selected and distributed evenly, according to edema size, into control and experimental groups of ten rats each. Vehicle control and drug treatments were assigned to the groups at random. The assay was performed using a variable dose level for each test compound per kilogram per day in 0.25% methylcellulose vehicle. All animals were dosed once daily for 4 days and on the fifth day both hind paw volumes were again measured using mercury displacement. The hind paw edema was determined for each rat by subtracting the hind paw volume measured on Day Zero from the hind paw volume measured on the fifth day of the study. Group means were determined and the drug effect was calculate as percent inhibition of the hind paw edema according to the following equation: [formula] […] The known anti-inflammatory NAPROXEN was also tested for comparison purposes.

[5] = U.S. Pat. No. 4,357,345; cited from earlier work
[6] = tested on: Adjuvant arthritis (hind paw edema); test: Adjuvant Arthritis Assay; Immunomodulatory; assay type: in vivo, Lewis female rats; details: 50 mg/kg, oral, Day 5 to 9; paw edema on Day 15
Description: Immunomodulatory: This activity was determined by using a Modified Adjuvant Assay procedure in which female rats were injected with Mycobacterium butyricum to induce hind paw edema. The test compounds were administered orally and the difference in volume between dosed and non-dosed paws was determined.
Lewis female rats were injected in the tail subcutaneously with Mycobacterium butyricum (0.75 mg in 0.1 ml light mineral oil, Fisher) on Day Zero. Prior to injection the volumes of the left and right rear paws were measured by mercury displacement. All rats were dosed orally with vehicle or test compounds on Day 5 to 9 inclusive. The volume of both hind paws were determined on Day 15 and the percent inhibitions were calculated based upon average edema on Day 15 relative to the edema mean in the control group.

[7] = LD50 (acute toxicity); details: rat, in vivo; printed after the oral four-day ulcerogenicity study in female Lewis rats
[8] = tested on: yeast-induced fever; test: Antipyretic Evaluation (yeast-induced fever in rats); assay type: in vivo, male Sprague-Dawley rats; details: 300 mg/kg, oral by gavage nineteen hours after yeast injection
Description: Antipyretic: This activity was evaluated by creating a yeast-induced fever in rats according to a modified method of the procedure described by Loux et al in "Toxicology and Applied Pharmacology", Vol. 22: page 672 (1972). In this assay rats injected with yeast in distilled water were dosed with test compounds, aspirin (positive control) and a vehicle (negative control) and the observed differences in body temperature were analyzed statistically.
Antipyretic activity was evaluated using a modification of the test described by Loux et al, in Toxicology and Applied Pharmacology, 22:672 (1972), that is, yeast-induced fever in rats. Each test group consisted of ten male Sprague-Dawley rats (Charles River Laboratories), weighing 180-225 grams each. Eighteen hours prior to compound administration the rats were weighed and body temperatures were recorded. Food was removed with water available ad libitum. […]
Test compounds suspended in 0.25% methylcellulose (0.25% MC) or olive oil were administered orally by gavage nineteen hours following the yeast injection. Body temperatures were taken and recorded one hour after compound administration. […] The mean temperature of the compound-treated groups, positive control group (Aspirin) and negative control group (vehicle) were calculated at 18 hours and 20 hours. The data was analyzed statistically using a paired-samples Student's t-Test.

CC(C)(C)c1cc(C=Cc2ccncc2)cc(C(C)(C)C)c1O [4-[2-(3',5'-di-tert-butyl-4'-hydroxyphenyl)ethenyl]pyridine]
effectiveness in the treatment of tumors [1]: effective in the treatment of tumors

COc1ccc2cc([C@H](C)C(=O)O)ccc2c1 [NAPROXEN]
ED50 [2]: 28 mg/kg
ED50 [3]: 6.2 mg/kg
ED50 [4]: 28 mg/kg

CCCCCCCCc1cc(C(C)(C)C)c(O)c(C(C)(C)C)c1 [4-n-octyl-2,6-di-(tert-butyl)phenol]
anti-inflammatory activity [5]: absence of anti-inflammatory activity

CC(=O)c1cc(C(C)(C)C)c(O)c(C(C)(C)C)c1 [4-acetyl-2,6-(di-tert-butyl)phenol]
anti-inflammatory activity [5]: absence of anti-inflammatory activity

Cc1cc(C(C)(C)C)c(O)c(C(C)(C)C)c1 [3,5-di(tert-butyl)-4-hydroxytoluene]
anti-inflammatory activity [5]: little or no value as an anti-inflammatory agent

CC(C)(C)c1cc(S(=O)(=O)c2ccccc2)cc(C(C)(C)C)c1O [2,6-di-(tert-butyl)-4-(phenylsulfonyl)phenol]
anti-inflammatory activity [5]: absence of anti-inflammatory activity

CC(C)(C)c1cc(C(=O)c2ccccc2Cl)cc(C(C)(C)C)c1O [4-(2-chlorobenzoyl)-2,6-di-(tert-butyl)phenol]
anti-inflammatory activity [5]: absence of anti-inflammatory activity

CC(C)(C)c1cccc(C(C)(C)C)c1O [2,6-di-(tert-butyl)phenol]
anti-inflammatory activity [5]: absence of anti-inflammatory activity

CC(C)(C)c1cc(C=Cc2ccccn2)cc(C(C)(C)C)c1O [2-[2-(3',5'-di-tert-butyl-4'-hydroxyphenyl)ethenyl]pyridine]
effectiveness in the treatment of tumors [1]: effective in the treatment of tumors

CC(C)(C)c1cc(N2CCCC2=O)cc(C(C)(C)C)c1O [Example 1, 1-(3,5-Di-tert-Butyl-4-Hydroxyphenyl)Pyrrolidin-2-One]
% Inhibition (Adjuvant Arthritis Data-Immunomodulatory) [6]: 39%
LD50 [7]: > 1000 mg/kg
ED50 [2]: 36 mg/kg
ED50 [3]: 13 mg/kg
ED50 [4]: 21 mg/kg

CC(C)(C)c1cc(C(N)=O)cc(C(C)(C)C)c1O [4-carboxamido-2,6-di-(tert-butyl)phenol]
anti-inflammatory activity [5]: absence of anti-inflammatory activity

CC(C)(C)c1cc(C(=O)c2cc(C(=O)O)ccc2Cl)cc(C(C)(C)C)c1O [4-(5-carboxy-2-chlorobenzoyl)-2,6-di-(tert-butyl)phenol]
anti-inflammatory activity [5]: absence of anti-inflammatory activity

CC(C)(C)c1cc(N2CCCCC2=O)cc(C(C)(C)C)c1O [Example 2, 1-(3,5-Di-tert-Butyl-4-Hydroxyphenyl)Piperidin-2-One]
ED50 [4]: 34 mg/kg

CC(=O)Oc1ccccc1C(=O)O [Aspirin]
Change in Temperature, 18-20 Hour Period [8]: -2.05 °C
